Experiments:
cisplatin-induced emesis = assay: Cisplatin-induced emesis in dogs (antiemetic); format: in vivo, dog; conditions: for inhibition in vivo at 1 mg/kg: Canis lupus familiaris, iv, 5 h, read-out: % inhibition of cisplatin-induced emesis
Procedure: The procedure used to test compounds of the present invention for antiemetic properties is a modification of the method of Gylys et al, Res. Commun, Chem. Pathol. Pharm., 23, 61(1979).
Adult, mongrel, unfasted dogs of both sexes were randomly assigned into treatment groups, with each treatment group consisting of four dogs. On the dosing day all dogs were given cisplatin, 3.0 mg/kg, intravenously. Sixty minutes later, the dogs in the control treatment group were given deionized water, 0.1 ml/kg intravenously. The dogs in the test group were given a test compound at an appropriate dose intravenously. All doses were administered as a solution by means of a syringe and needle, and each dog's emetic episodes were recorded for 5 hours after the administration of cisplatin.

emesis = conditions: reported by Mikhlina et al, Khim-Farmastsevt. Zh. 10 (1976); cited from earlier work
dopamine D2 -receptor = conditions: reported in USSR Pat. No. SU-414-261; cited from earlier work
gastric emptying = assay: Gastric emptying of a test meal in fasted rats; format: in vivo; conditions: fasted rat, 9.0 mg/kg IP 30 min before test meal; measured 60 min after the meal
Procedure: The procedure used to test compounds of the present invention for gastric motility enhancing activity was that of Droppleman et al, J. Pharmacol. Methods, 4, 227(1980). Each animal was dosed intraperitoneally (9.0 mg/kg) with a test compound or control. After 30 minutes each animal was given 3 ml of a methylcellulose-based test meal formulation. Sixty minutes after administration of the test meal, each animal was killed by cervical dislocation, and the stomach was removed and weighed. The stomach was cut open, rinsed and dried, and reweighed. The difference between the full and empty weights (amount of meal remaining in stomach) was subtracted from the original test meal weight to determine the meal amount emptied from the stomach during the test period.

[1] = tested on: 5-HT (serotonin)-induced contractions of the guinea pig ileum; assay: Blockade of serotonin-induced contractions of guinea pig ileum (5-HT antagonist activity); format: cell-based; conditions: 10^-6 M serotonin
[2] = tested on: exploratory light/dark behavior; assay: Anxiolytic model, two-compartment exploratory light/dark test in mice; format: in vivo; conditions: mouse, 10 mg/kg IP, 5 minute period; vehicle control 29
Excerpt: The method has been described by Young and Johnson, Soc. Neurosci. Abs., 1988, 14, 207 and is a modification of the procedures described by Costall and Naylor, Brit. J. Pharmacol. 1988, 93, 985-993; and Crawley, Pharmacol. Biochem. and Behav. 1981, 15, 695-699. A two compartment light-dark activity monitoring device (Digiscan Model RXWZCM16, Omnitech Electronics,Inc., Columbus, Ohio) is used. A 90W light source located 30 cm above the box provides light to the apparatus. Behavioral testing was conducted in a sound attenuated, darkened room illuminated with a red light (25W red bulb) only.
Each animal (mouse) received a dose of either the test, reference, or control article. The mouse was placed at the center of the illuminated area and its behavioral activity tallied over a 5 minute period by use of a Digiscan analyzer. Behavioral variables recorded include: the time spent in the lit and dark areas, the number of rearings in the lit and dark areas, the number of locomotor activity counts in the lit and dark areas, the number of transitions between the lit and dark or dark and lit areas, rearing time in the lit and dark areas, the latency to make the first transition from the lit to the dark areas, locomotor time in the lit and dark areas, and resting time in the lit and dark areas. Appropriate statistical analyses for each measure were performed. […]

Row | Compound | inhibition in vivo at 1 mg/kg (cisplatin-induced emesis) | other results
1 | 2-(1-Piperidinylmethyl)-1-azabicyclo[2.2.2]oct-3-yl 1-methyl-1H-indole-3-carboxylate cis isomer [XIII (cis isomer)] | – | % inhibition of cisplatin-induced emesis (cisplatin-induced emesis; dog, 1.0 mg/kg IV given 60 min after cisplatin 3.0 mg/kg IV, emetic episodes recorded for 5 hours): 34%
2 | COc1ccc(S(N)(=O)=O)cc1C(=O)NC1CN2CCC1CC2 (stereo not drawn) [5-aminosulfonyl-N-(1-azabicyclo-[2.2.2]oct-3-yl)-2-methoxybenzamide] | – | anti-emetic activity (emesis): not to have anti-emetic activity; neuroleptic activity (dopamine D2 -receptor): neuroleptic activity
3 | COc1cc(N)c(Cl)cc1C(=O)NC1C2CCN(CC2)C1CN(C)C (stereo not drawn) [Example I, 4-Amino-5-chloro-N-[2-[(dimethylamino)methyl]-1-azabicyclo[2.2.2]oct-3-yl]-2-methoxy-benzamide] | 96% | % change in meal emptied (gastric emptying): +36%
4 | COc1cc(N)c(Cl)cc1C(=O)NC1C2CCN(CC2)C1CN1CCCCC1 (stereo not drawn) [Example IV, 4-Amino-5-chloro-2-methoxy-N-[2-(1-piperidinylmethyl)-1-azabicyclo[2.2.2]oct-3-yl]benzamide] | 94% | pA2 against serotonin-induced contractions [1]: 6.6
5 | CNc1cc(OC)c(C(=O)NC2C3CCN(CC3)C2CN2CCCCC2)cc1Cl (stereo not drawn) [Example V, 5-Chloro-2-methoxy-4-(methylamino)-N-[2-(1-piperidinylmethyl)-1-azabicyclo[2.2.2]oct-3-yl]benzamide] | 99% | % Time Spent In Lit Area [2]: 51%
6 | CSCCOc1cc(N)c(Cl)cc1C(=O)NC1C2CCN(CC2)C1CN(C)C (stereo not drawn) [II, 4-Amino-5-chloro-N-[2-[(dimethylamino)methyl]-1-azabicyclo[2.2.2]oct-3-yl]-2-[2-(methylthio)ethoxy]benzamide] | 47% | –
7 | CNc1cc(OC)c(C(=O)NC2C3CCN(CC3)C2CN(C)C)cc1Cl (stereo not drawn) [III, 5-Chloro-N-[2-[(dimethylamino)methyl]-1-azabicyclo[2.2.2]oct-3-yl]-2-methoxy-4-(methylamino)benzamide] | 73% | –
8 | COc1cc(N)c(Cl)cc1C(=O)NC1C2CCN(CC2)C1CN1CCCC1 (stereo not drawn) [VI, 4-Amino-5-chloro-2-methoxy-N-[2-(1-pyrrolidinylmethyl)-1-azabicyclo[2.2.2]oct-3-yl]benzamide] | 87% | % change in meal emptied (gastric emptying): +33%
9 | CNc1cc(OC)c(C(=O)NC2C3CCN(CC3)C2CN2CCCC2)cc1Cl (stereo not drawn) [VII, 5-Chloro-2-methoxy-4-(methylamino)-N-[2-(1-pyrrolidinylmethyl)-1-azabicyclo[2.2.2]oct-3-yl]benzamide] | 87% | –
10 | COc1cc(N)c(Cl)cc1C(=O)NC1C2CCN(CC2)C1CN1CCOCC1 (stereo not drawn) [XI, 4-Amino-5-chloro-2-methoxy-N-[2-(4-morpholinylmethyl)-1-azabicyclo[2.2.2]oct-3-yl]benzamide] | 21% | –

From US5273972A, “[(2-diakylaminomethyl)-3-quinuclidinyl]-benzamides and benzoates” (priority 1992, dated 1993)
